Assay results: ChEMBL document CHEMBL5034046, “Discovery of Small-Molecule CD33 Pre-mRNA Splicing Modulators” (ACS Med Chem Lett, 2022)
≈ marks a conversion by molar mass, not a printed value.

Key:
[1] = Increase in CD11c level in human THP-1 cell surface incubated for 48 to 72 hrs by high content imaging assay; format: functional
THP-1 = test: Cytotoxicity against human THP-1 cells assessed as reduction in cell viability by DAPI staining based assay; format: functional
[2] = Modulation of CD33 pre-mRNA splicing in human K562 cells assessed as induction of exon 2 skipping measured after 18 to 24 hrs by Nano-Luciferase reporter assay; format: cell-based
[3] = molecular target: Proprotein convertase subtilisin/kexin type 9 (Homo sapiens, UniProt Q8NBP7); test: Inhibition of PCSK9 translation in human THP-1 cells by AlphaLISA assay; format: cell-based
[4] = […] level in human THP-1 cell surface incubated for 48 to 72 hrs by high content imaging assay; format: functional
K562 = test: Modulation of CD33 pre-mRNA splicing in human K562 cells assessed as induction of exon 2 skipping at 25 uM measured after 18 to 24 hrs by Nano-Luciferase reporter assay; format: cell-based; details: filed as modulator, time 18-24 hrs
[5] = […] level in human THP-1 cell surface at top concentration incubated for 48 to 72 hrs by high content imaging assay; format: functional; details: time 48-72 hrs
[6] = Modulation of CD33 pre-mRNA splicing in human K562 cells assessed as induction of exon 2 skipping measured after 16 to 24 hrs by Nano-Luciferase counter screen assay; format: cell-based
[7] = Solubility of compound at pH 7.4; format: physicochemical; details: buffer
[8] = molecular target: Bromodomain-containing protein 4 (Homo sapiens, UniProt O60885); test: Inhibition of His-tagged BRD4 (unknown origin) using tetra-acetylated histone H4 peptide as substrate by fluorescent polarization binding assay
[9] = Apparent permeability in MDCK cells; format: ADME, cell-based, Canis lupus familiaris; details: dog
[10] = molecular target: Sodium-dependent serotonin transporter (Homo sapiens) (UniProt P31645); test: Inhibition of serotonin transporter (unknown origin) expressed in cells incubated for 30 mins by amine transporter assay; format: cell-based
[11] = molecular target: T1, Muscarinic acetylcholine receptor M1 (Homo sapiens, UniProt P11229); test: Antagonist activity at muscarinic M1 receptor (unknown origin) expressed in cells assessed as change in fluorescence measured after 24 hrs by FLIPR assay; format: functional, cell-based
T1 sequence (P11229 whole entry): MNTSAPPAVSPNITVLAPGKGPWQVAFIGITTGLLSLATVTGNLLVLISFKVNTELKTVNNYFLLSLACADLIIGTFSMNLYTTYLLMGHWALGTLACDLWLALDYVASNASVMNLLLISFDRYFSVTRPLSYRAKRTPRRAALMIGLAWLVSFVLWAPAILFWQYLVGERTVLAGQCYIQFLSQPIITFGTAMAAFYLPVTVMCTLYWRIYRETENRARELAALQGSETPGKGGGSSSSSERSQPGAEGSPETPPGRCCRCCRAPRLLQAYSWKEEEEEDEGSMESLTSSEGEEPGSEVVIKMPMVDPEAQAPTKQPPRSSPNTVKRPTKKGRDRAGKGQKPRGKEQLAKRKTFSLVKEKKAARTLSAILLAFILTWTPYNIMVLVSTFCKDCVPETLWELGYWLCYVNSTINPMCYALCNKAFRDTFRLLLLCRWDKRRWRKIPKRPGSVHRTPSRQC

Cannabinoid receptor 1 = Cannabinoid receptor 1 (Homo sapiens, UniProt P21554); test: Agonist activity at cannabinoid receptor 1 (unknown origin) expressed in cells measured after 90 mins by beta-arrestin recruitment assay; format: functional, cell-based
D(1A) dopamine receptor = D(1A) dopamine receptor (Homo sapiens, UniProt P21728); test: Agonist activity at dopamine D1 receptor (unknown origin) expressed in cells assessed as change in fluorescence measured after 24 hrs by FLIPR assay; format: functional, cell-based
[12] = Cytotoxicity against human THLE cells by ATP depletion assay; format: cell-based
[13] = molecular target: cGMP-specific 3',5'-cyclic phosphodiesterase (Homo sapiens, UniProt O76074); test: Inhibition of PDE5A1 (unknown origin) assessed as conversion of cAMP to AMP measured after 30 mins by YSi scintillation proximity assay
[14] = molecular target: Beta-2 adrenergic receptor (Homo sapiens, UniProt P07550); test: Agonist activity at adrenergic beta2 receptor (unknown origin) expressed in cells measured after 90 mins by beta-arrestin recruitment assay; format: functional, cell-based
Histamine H1 receptor = Histamine H1 receptor (Homo sapiens, UniProt P35367); test: Agonist activity at histamine H1 receptor (unknown origin) expressed in cells assessed as change in fluorescence measured after 24 hrs by FLIPR assay; format: functional, cell-based
[15] = molecular target: Sodium-dependent noradrenaline transporter (Homo sapiens) (UniProt P23975); test: Inhibition of norepinephrine transporter (unknown origin) expressed in cells incubated for 60 mins by amine transporter assay; format: cell-based
[16] = molecular target: T2, Alpha-1A adrenergic receptor (Homo sapiens, UniProt P35348); test: Agonist activity at adrenergic alpha-1A receptor (unknown origin) expressed in cells assessed as change in fluorescence measured after 24 hrs by FLIPR assay; format: functional, cell-based
T2 sequence (P35348 whole entry): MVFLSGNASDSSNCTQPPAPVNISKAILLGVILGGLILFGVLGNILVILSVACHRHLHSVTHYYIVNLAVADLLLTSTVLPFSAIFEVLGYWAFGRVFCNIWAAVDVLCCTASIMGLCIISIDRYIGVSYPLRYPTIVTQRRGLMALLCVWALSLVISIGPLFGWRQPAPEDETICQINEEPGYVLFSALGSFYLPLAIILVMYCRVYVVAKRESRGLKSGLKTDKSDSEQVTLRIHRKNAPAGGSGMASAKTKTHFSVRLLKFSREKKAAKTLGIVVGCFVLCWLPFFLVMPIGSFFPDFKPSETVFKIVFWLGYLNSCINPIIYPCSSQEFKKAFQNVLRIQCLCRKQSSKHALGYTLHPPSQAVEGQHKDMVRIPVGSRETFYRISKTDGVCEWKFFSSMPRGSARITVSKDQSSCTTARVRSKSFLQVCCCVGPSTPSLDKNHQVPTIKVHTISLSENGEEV

[17] = molecular target: Sodium-dependent dopamine transporter (Homo sapiens) (UniProt Q01959); test: Inhibition of dopamine transporter (unknown origin) expressed in cells incubated for 60 mins by amine transporter assay; format: cell-based
[18] = Distribution coefficient, logD of compound at pH 7.4 by shake flask method; format: physicochemical; details: octanol/water
[19] = molecular target: T3, Voltage-gated inwardly rectifying potassium channel KCNH2 (Homo sapiens, UniProt Q12809); test: Displacement of [3H]-dofetilide from human ERG
[20] = Inhibition of PDE3A1 (unknown origin) assessed as conversion of cAMP to AMP measured after 30 mins by YSi scintillation proximity assay; set-up: species or system Homo sapiens
[21] = molecular target: 5-hydroxytryptamine receptor 2B (Homo sapiens, UniProt P41595); test: Agonist activity at serotonin 2B receptor (unknown origin) expressed in cells assessed as change in fluorescence measured after 24 hrs by FLIPR assay; format: functional, cell-based
[22] = molecular target: 3',5'-cyclic-AMP phosphodiesterase 4D (Homo sapiens, UniProt Q08499); test: Inhibition of PDE4D3 (unknown origin) assessed as conversion of cAMP to AMP measured after 30 mins by YSi scintillation proximity assay
[23] = molecular target: T3, Voltage-gated inwardly rectifying potassium channel KCNH2; test: Inhibition of human ERG

Proprotein convertase subtilisin/kexin type 9, sequence (Q8NBP7 31-152 limits assumed): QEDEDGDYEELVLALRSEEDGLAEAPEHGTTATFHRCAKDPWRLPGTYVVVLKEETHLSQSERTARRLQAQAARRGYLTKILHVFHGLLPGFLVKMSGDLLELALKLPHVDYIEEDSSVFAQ
Proprotein convertase subtilisin/kexin type 9, sequence (Q8NBP7 153-692 limits assumed): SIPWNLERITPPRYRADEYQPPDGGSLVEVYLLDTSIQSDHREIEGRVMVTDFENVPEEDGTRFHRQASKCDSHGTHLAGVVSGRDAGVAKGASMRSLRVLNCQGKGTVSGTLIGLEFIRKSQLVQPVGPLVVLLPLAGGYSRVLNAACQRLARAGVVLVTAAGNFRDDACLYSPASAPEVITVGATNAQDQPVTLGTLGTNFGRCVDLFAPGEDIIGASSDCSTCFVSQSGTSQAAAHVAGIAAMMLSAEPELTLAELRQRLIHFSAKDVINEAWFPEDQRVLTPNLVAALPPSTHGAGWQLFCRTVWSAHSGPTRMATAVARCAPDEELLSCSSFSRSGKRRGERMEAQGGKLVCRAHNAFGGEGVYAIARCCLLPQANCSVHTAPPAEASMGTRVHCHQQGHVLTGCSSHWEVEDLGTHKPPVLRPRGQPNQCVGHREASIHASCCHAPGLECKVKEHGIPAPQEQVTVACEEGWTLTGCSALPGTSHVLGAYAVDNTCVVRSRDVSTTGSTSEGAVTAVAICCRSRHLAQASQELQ
T3 sequence (Q12809 whole entry): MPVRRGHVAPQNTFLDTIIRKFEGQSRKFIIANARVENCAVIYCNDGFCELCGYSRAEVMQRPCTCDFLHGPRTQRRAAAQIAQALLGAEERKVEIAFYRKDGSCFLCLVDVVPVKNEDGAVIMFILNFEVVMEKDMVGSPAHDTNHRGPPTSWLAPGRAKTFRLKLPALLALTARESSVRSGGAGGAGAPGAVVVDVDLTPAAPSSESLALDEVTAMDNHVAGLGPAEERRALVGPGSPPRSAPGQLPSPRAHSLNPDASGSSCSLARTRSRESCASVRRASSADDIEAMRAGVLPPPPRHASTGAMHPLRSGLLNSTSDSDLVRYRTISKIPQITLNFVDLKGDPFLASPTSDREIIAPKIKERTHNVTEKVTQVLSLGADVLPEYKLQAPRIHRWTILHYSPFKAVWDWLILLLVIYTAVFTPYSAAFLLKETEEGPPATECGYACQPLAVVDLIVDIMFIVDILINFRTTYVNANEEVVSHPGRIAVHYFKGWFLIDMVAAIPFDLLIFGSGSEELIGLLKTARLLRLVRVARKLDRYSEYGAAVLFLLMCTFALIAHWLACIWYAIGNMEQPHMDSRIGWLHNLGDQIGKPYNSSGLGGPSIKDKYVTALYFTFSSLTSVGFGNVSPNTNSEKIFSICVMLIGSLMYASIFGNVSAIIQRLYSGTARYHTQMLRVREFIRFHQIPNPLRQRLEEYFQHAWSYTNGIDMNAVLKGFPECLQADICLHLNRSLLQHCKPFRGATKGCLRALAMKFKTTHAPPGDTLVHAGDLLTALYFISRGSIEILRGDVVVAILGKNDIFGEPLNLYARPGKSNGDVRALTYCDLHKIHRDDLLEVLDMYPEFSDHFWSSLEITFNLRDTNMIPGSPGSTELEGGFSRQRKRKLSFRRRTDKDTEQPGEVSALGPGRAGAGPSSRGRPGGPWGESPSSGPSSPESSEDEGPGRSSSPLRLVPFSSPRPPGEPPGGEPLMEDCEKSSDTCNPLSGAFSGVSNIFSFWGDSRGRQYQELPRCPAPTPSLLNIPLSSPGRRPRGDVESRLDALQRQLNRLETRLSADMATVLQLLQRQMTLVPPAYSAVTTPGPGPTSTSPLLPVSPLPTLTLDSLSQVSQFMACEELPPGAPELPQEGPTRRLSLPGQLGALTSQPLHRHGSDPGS
Sodium-dependent serotonin transporter (Homo sapiens), sequence (P31645 whole entry, looked up): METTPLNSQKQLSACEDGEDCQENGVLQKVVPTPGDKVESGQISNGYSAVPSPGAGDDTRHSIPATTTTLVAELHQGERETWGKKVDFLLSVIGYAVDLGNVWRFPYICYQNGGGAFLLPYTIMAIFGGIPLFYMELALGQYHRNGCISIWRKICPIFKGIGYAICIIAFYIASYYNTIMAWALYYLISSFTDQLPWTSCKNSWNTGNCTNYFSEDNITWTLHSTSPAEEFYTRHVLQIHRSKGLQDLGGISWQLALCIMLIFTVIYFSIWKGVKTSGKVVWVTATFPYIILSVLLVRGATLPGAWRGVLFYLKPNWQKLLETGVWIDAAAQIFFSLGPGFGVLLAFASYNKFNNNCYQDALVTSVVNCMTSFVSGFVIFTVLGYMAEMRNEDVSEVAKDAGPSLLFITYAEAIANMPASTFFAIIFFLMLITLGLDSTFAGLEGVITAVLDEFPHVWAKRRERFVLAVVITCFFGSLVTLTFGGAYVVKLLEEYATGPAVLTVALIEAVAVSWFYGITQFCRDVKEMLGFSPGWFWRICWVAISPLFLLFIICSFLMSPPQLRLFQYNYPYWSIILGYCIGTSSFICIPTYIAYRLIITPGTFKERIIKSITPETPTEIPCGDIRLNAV
Cannabinoid receptor 1, sequence (P21554 whole entry): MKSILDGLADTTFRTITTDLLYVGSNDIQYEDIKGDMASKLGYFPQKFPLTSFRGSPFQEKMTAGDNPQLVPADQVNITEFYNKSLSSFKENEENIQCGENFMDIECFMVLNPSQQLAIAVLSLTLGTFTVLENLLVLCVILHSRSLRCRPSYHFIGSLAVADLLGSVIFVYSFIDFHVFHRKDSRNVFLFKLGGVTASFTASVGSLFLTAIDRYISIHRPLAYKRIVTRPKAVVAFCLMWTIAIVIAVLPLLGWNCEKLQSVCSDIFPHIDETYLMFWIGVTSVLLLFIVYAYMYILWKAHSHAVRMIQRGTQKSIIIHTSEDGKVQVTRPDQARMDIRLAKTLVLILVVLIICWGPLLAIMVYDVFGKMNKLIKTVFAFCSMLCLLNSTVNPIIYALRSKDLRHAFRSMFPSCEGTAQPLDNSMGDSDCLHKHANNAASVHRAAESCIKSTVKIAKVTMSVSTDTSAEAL
Beta-2 adrenergic receptor, sequence (P07550 whole entry): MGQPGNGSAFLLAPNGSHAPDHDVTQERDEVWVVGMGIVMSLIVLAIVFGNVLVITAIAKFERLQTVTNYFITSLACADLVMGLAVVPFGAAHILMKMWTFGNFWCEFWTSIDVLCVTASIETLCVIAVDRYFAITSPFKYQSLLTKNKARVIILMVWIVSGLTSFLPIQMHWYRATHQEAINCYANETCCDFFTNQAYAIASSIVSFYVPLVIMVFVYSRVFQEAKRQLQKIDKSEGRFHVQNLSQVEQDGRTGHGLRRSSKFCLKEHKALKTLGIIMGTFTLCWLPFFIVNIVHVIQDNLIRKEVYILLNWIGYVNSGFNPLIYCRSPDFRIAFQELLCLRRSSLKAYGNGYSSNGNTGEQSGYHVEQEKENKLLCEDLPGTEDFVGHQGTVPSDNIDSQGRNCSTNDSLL
D(1A) dopamine receptor, sequence (P21728 whole entry): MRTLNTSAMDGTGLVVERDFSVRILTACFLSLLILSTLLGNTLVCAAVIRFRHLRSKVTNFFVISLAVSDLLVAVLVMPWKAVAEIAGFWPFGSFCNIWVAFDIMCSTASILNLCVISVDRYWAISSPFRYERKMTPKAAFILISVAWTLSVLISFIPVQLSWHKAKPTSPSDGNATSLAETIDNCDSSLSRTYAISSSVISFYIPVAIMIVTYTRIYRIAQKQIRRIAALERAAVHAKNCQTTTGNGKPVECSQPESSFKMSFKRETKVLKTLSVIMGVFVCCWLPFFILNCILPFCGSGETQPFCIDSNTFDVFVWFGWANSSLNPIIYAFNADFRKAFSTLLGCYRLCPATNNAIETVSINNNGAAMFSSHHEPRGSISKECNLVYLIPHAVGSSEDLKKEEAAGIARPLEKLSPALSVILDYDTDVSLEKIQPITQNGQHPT
5-hydroxytryptamine receptor 2B, sequence (P41595 whole entry): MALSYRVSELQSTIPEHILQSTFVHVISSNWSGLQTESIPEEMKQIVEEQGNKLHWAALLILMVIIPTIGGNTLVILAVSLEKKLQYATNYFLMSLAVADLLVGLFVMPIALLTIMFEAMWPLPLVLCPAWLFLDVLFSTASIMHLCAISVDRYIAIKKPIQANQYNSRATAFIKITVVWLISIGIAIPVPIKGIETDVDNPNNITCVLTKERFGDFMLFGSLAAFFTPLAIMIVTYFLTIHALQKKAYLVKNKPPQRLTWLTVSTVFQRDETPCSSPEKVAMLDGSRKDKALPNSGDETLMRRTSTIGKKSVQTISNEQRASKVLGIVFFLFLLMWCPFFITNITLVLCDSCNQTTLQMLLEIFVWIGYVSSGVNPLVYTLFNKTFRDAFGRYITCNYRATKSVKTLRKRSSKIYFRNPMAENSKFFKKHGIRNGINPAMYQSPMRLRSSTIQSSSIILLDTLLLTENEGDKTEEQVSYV
Histamine H1 receptor, sequence (P35367 whole entry): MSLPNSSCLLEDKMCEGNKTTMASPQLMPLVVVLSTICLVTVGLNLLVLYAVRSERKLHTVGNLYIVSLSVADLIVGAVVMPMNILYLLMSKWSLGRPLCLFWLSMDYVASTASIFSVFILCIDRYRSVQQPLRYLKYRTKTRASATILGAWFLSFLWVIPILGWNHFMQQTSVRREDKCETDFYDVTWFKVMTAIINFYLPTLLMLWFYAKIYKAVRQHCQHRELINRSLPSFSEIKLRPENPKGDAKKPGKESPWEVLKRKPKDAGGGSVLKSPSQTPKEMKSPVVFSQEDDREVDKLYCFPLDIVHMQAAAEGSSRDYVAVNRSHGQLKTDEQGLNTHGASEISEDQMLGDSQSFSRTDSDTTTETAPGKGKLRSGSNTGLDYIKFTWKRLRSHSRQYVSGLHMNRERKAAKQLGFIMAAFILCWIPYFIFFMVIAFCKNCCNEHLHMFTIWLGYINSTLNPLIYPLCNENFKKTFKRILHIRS

Row | EC50 [1] | EC50 [2] | IC50 [3] | EC50 [4] | SMILES | EC50 (THP-1) | Emax (K562) | Emax [5] | EC50 [6] | other results
1 | > 50 µM | 3.7 µM | 2.2 µM | 33 µM | Cc1cccnc1N(C(=O)c1ccc(-c2cnn3cccnc23)cc1)[C@@H]1CCCNC1 | > 50 µM | 145% | -41% | > 10 µM | 
2 |  | 4.5 µM |  |  | O=C(c1ccc(-n2nnc3cccnc32)cc1)N(c1ncccc1Cl)[C@@H]1CCCNC1 |  | 100% |  | > 10 µM | 
3 |  | 1.4 µM |  |  | Cc1cnc2c(c1)nnn2-c1ccc(C(=O)N(c2ncccc2Cl)[C@@H]2CCCNC2)cc1 |  | 80% |  | > 10 µM | 
4 | > 30 µM | > 10 µM | 2.8 µM | > 30 µM | Cc1cncc(-c2ccc(C(=O)N(c3ncccc3Cl)[C@@H]3CCCNC3)cc2)n1 | > 30 µM |  | -32% | > 10 µM | 
5 |  | 4.4 µM | 0.9 µM |  | Cc1ccc2nnn(-c3ccc(C(=O)N(c4ncccc4Cl)[C@@H]4CCCNC4)cc3)c2n1 |  | 155% |  | > 25 µM | 

The next lines start with the compound.

Row | SMILES | EC50 [1] | EC50 [2] | IC50 [3] | EC50 [4] | EC50 (THP-1) | Emax (K562) | Emax [5] | EC50 [6] | other results
6 | COC(=O)c1c(-c2ccc(C(=O)N(c3ncccc3C)[C@@H]3CCCNC3)cc2)cnn1C | > 50 µM | 3.6 µM | 2.5 µM | 8.3 µM | > 50 µM | 220% | -35% | > 10 µM | 
7 | O=C(c1ccc(-c2cnn3cccnc23)cc1)N(c1nccc2ccccc12)[C@@H]1CCCNC1 |  | 0.58 µM | 1.3 µM |  |  | 206% |  | > 10 µM | 
8 | CNc1cncc(-c2ccc(C(=O)N(c3ncccc3Cl)[C@@H]3CCCNC3)cc2)n1 | > 10 µM | 5.6 µM | 3.1 µM | 6 µM | > 10 µM | 100% | -25% | > 10 µM | 
9 | CN(C)c1cncc(-c2ccc(C(=O)N(c3ncccc3Cl)[C@@H]3CCCNC3)cc2)n1 | > 50 µM | > 10 µM | 3 µM | 39 µM | > 50 µM |  | -41% | > 10 µM | 
10 | Cc1cnc2c(-c3ccc(C(=O)N(c4ncccc4C)[C@@H]4CCCNC4)cc3F)cnn2c1 | > 10 µM | 7.8 µM | 1.7 µM | 2.1 µM | > 10 µM | 100% | -43% | > 10 µM | solubility [7]: 460 µM (≈ 204 µg/mL); IC50 [8]: > 25 µM; Papp [9]: 10.1 ×10⁻⁶ cm/s; Kb [10]: > 10 µM; Ki [11]: 0.4 µM; EC50 (Cannabinoid receptor 1): > 10 µM; EC50 (D(1A) dopamine receptor): > 10 µM; IC50 [12]: 204 µM; IC50 [13]: > 200 µM; EC50 [14]: > 10 µM; EC50 (Histamine H1 receptor): > 10 µM; Kb [15]: > 10 µM; EC50 [16]: > 10 µM; Kb [17]: > 10 µM; logD [18]: 1.1; Ki [19]: 7.2 µM; IC50 [20]: 99 µM; EC50 [21]: > 10 µM; IC50 [22]: 39 µM; EC50 [23]: 12.7 µM
